Source: article PMC5845353, “The selective cathepsin K inhibitor MIV-711 attenuates joint pathology in experimental animal models of osteoarthritis” (Journal of Translational Medicine, 2018)
Several values for one entry are separate records, joined by “and”; a condition that tells them apart may be missing. Equal entries are not always repeated.

Tests used:
[1] = target: rabbit cathepsin K enzyme; parameters: method as in PMID 29743078; conditions: read-out: Ki against rabbit cathepsin K enzyme; cited from earlier work
[2] = test system: dogs subjected to partial medial meniscectomy; assay: Dog partial medial meniscectomy study, microscopic cartilage degeneration scores; type: in vivo; parameters: key to Total Joint CD Score: sum of tibial and femoral degeneration scores (1=minimal…3=moderate)
Excerpt: The proximal end of the left tibia and the distal end of the left femur were removed using a hacksaw and collected into 10% neutral buffered formalin. Bones were allowed to fix for 5 days and then the tissues were placed in formic acid decalcifier (5-20%). After decalcification, the surface area at risk for lesion development of the tibia (medial and lateral plateaus) and femur (medial and lateral condyles) was divided into 3 slabs (anterior to posterior) approximately 2-4 mm thick for processing, embedding, sectioning (8 µm) and staining (Toluidine Blue). The lesions are in reasonably consistent locations in all animals, therefore, the same surfaces and area were consistently embedded for all animals. Blocks containing tissue were numbered 1-3 with 1 being the most anterior piece. In all cases, the anterior aspect of the tissue was embedded down in the cassette for sectioning.
Compartmentalized lesions on medial tibia and medial femur (cartilage degeneration and osteophytes) were scored for each of the 3 (anterior to posterior) sections using the following system:
1=minimal degeneration, chondrocyte and proteoglycan loss with or without fibrillation involving the superficial zone or extending into the upper 10% of the cartilage thickness or at least 5% but not more than 10% overall total proteoglycan and cell loss in the zone if lesion is focal and deeper in some areas. Deeper and more extensive proteoglycan loss only without any evidence of chondrocyte loss and collagen damage is also given a score of 1 as this is a minor and reversible change
2=mild degeneration, chondrocyte and proteoglycan loss with fibrillation involving mainly the upper 11-25% of cartilage thickness, fibrillation generally superficial (upper 10%) while chondrocyte and proteoglycan loss extend into approximately 11-25% of the cartilage depth, or 11-25% overall chondrocyte and proteoglycan loss in the zone if lesion is focal and deeper in some areas. Deeper areas of proteoglycan loss only, without chondrocyte loss or collagen disruption (reversible changes) may be present
3=moderate degeneration, chondrocyte and proteoglycan loss with fibrillation extending well into the midzone and generally affecting 1/2 (50%) of the total cartilage thickness, fibrillation/collagen damage generally extends into upper 25% while chondrocyte and proteoglycan loss extend through 50% thickness, or 26-50% overall chondrocyte and proteoglycan loss in the zone if lesion is focal and deeper in some areas. Deeper areas of proteoglycan loss only, without chondrocyte loss or collagen disruption (reversible changes) may be present
4=marked degeneration, chondrocyte and proteoglycan loss with fibrillation extending through the mid zone through 3/4 f the depth (51-75% of cartilage thickness) but without complete (to the tidemark) loss of chondrocytes or proteoglycan, fibrillation/collagen damage generally extend through the mid zone (50% thickness) but deep zone collagen remains intact, or 51-75% overall chondrocyte and proteoglycan loss in the zone if lesion is focal and deeper in some areas. Deeper areas of proteoglycan loss only, without chondrocyte loss or collagen disruption (reversible changes) may be present
5=severe degeneration, chondrocyte and proteoglycan loss to near tidemark (76-100% of depth) with slightly less severe collagen damage or 76-100% overall chondrocyte and proteoglycan loss in the zone.
Each medial tibial plateau and medial femoral condyle anterior to posterior section was further divided visually with an ocular micrometer into fourths and numbered 1,2,3,4 with 1 being the outside and 4 being the inside quadrant. A mean score for the four levels was calculated. In addition, means of the 3 sections for each quadrant were determined in order to convey lesion severity in various axial to abaxial locations. Overall tibial and femoral values were summed for a total joint cartilage degeneration score.

[3] = individual dogs of MIV-711 group
[4] = individual dogs of MIV-711 group, score=depth (1-5), mean of 4 quadrants

SMILES: C#C[C@@H]1CN(C(=O)[C@H](CC(C)C)NC(=O)c2ccc(-c3nc(N4CCN(C)CC4)sc3F)cc2)[C@@H]2C(=O)CO[C@H]12 [MIV-711]
- Ki [1]: 3.3 nM
- Femur Cartilage Degeneration Score Level 1 ([2]; MIV-711 group mean): 0.57
- Femur Cartilage Degeneration Score Level 2 ([2]; MIV-711 group mean): 0.65
- Femur Cartilage Degeneration Score Level 3 ([2]; MIV-711 group mean): 0.77
- Femur Cartilage Degeneration Score Mean ([2]; MIV-711 group mean): 0.66
- Femur Cartilage Degeneration Score Zone 1 ([2]; MIV-711 group mean): 1.16
- Femur Cartilage Degeneration Score Zone 2 ([2]; MIV-711 group mean): 1.09
- Femur Cartilage Degeneration Score Zone 3 ([2]; MIV-711 group mean): 0.33
- Femur Cartilage Degeneration Score Zone 4 ([2]; MIV-711 group mean): 0.07
- Tibia Cartilage Degeneration Score Level 1 ([2]; MIV-711 group mean): 0.60
- Tibia Cartilage Degeneration Score Level 2 ([2]; MIV-711 group mean): 1.22
- Tibia Cartilage Degeneration Score Level 3 ([2]; MIV-711 group mean): 0.92
- Tibia Cartilage Degeneration Score Mean ([2]; MIV-711 group mean): 0.91
- Tibia Cartilage Degeneration Score Zone 1 ([2]; MIV-711 group mean): 0.33
- Tibia Cartilage Degeneration Score Zone 2 ([2]; MIV-711 group mean): 1.76
- Tibia Cartilage Degeneration Score Zone 3 ([2]; MIV-711 group mean): 1.02
- Tibia Cartilage Degeneration Score Zone 4 ([2]; MIV-711 group mean): 0.53
- Total Joint CD Score ([2]; MIV-711 group mean): 1.57
- % inhibition, Femur Cartilage Degeneration Score Level 1 ([2]; MIV-711 group vs vehicle): 13%
- % inhibition, Femur Cartilage Degeneration Score Level 2 ([2]; MIV-711 group vs vehicle): 0%
- % inhibition, Femur Cartilage Degeneration Score Level 3 ([2]; MIV-711 group vs vehicle): 8%
- % inhibition, Femur Cartilage Degeneration Score Mean ([2]; MIV-711 group vs vehicle): 7%
- % inhibition, Femur Cartilage Degeneration Score Zone 1 ([2]; MIV-711 group vs vehicle): -6%
- % inhibition, Femur Cartilage Degeneration Score Zone 2 ([2]; MIV-711 group vs vehicle): 6%
- % inhibition, Femur Cartilage Degeneration Score Zone 3 ([2]; MIV-711 group vs vehicle): 32%
- % inhibition, Femur Cartilage Degeneration Score Zone 4 ([2]; MIV-711 group vs vehicle): 40%
- % inhibition, Tibia Cartilage Degeneration Score Level 1 ([2]; MIV-711 group vs vehicle): 41%
- % inhibition, Tibia Cartilage Degeneration Score Level 2 ([2]; MIV-711 group vs vehicle): 9%
- % inhibition, Tibia Cartilage Degeneration Score Level 3 ([2]; MIV-711 group vs vehicle): -38%
- % inhibition, Tibia Cartilage Degeneration Score Mean ([2]; MIV-711 group vs vehicle): 9%
- % inhibition, Tibia Cartilage Degeneration Score Zone 1 ([2]; MIV-711 group vs vehicle): 48%
- % inhibition, Tibia Cartilage Degeneration Score Zone 2 ([2]; MIV-711 group vs vehicle): 0%
- % inhibition, Tibia Cartilage Degeneration Score Zone 3 ([2]; MIV-711 group vs vehicle): 8%
- % inhibition, Tibia Cartilage Degeneration Score Zone 4 ([2]; MIV-711 group vs vehicle): -4%
- % inhibition, Total Joint CD Score ([2]; MIV-711 group vs vehicle): 8%
- decrease in cartilage degeneration scores in level 1 (anterior) of the tibia ([2]; dog, 30 µmol/kg vs vehicle, statistically significant): 41%
- Femur Cartilage Degeneration Score Zone 1 [2, 3]: 1.00 and 0.33 and 2.00 and 1.33 and 0.67
- Femur Cartilage Degeneration Score Zone 2 [2, 3]: 1.33 and 1.67 and 0.00 and 2.00 and 1.00 and 0.33 and 2.33
- Femur Cartilage Degeneration Score Zone 3 [2, 3]: 0.33 and 0.00 and 1.33 and 1.67
- Femur Cartilage Degeneration Score Zone 4 [2, 3]: 0.00 and 0.33
- Tibia Cartilage Degeneration Score Zone 1 [2, 3]: 0.33 and 0.67 and 0.00 and 1.00
- Tibia Cartilage Degeneration Score Zone 2 [2, 3]: 1.67 and 1.33 and 2.00 and 2.33
- Tibia Cartilage Degeneration Score Zone 3 [2, 3]: 1.33 and 1.00 and 1.67 and 0.67 and 0.33
- Tibia Cartilage Degeneration Score Zone 4 [2, 3]: 0.67 and 0.33 and 0.00 and 1.00
- Total Joint CD Score [2, 3]: 1.08 and 1.67 and 1.75 and 0.75 and 2.42 and 1.33 and 1.50 and 1.25 and 2.00 and 1.83 and 3.00
- Femur Cartilage Degeneration Score Level 1 [2, 4]: 0.50 and 0.25 and 0.75 and 1.00
- Femur Cartilage Degeneration Score Level 2 [2, 4]: 0.50 and 1.00 and 0.00 and 1.75 and 0.75 and 0.25
- Femur Cartilage Degeneration Score Level 3 [2, 4]: 0.50 and 1.00 and 0.00 and 1.50 and 0.25 and 1.25 and 0.75 and 2.00
- Femur Cartilage Degeneration Score Mean [2, 4]: 0.50 and 0.67 and 0.83 and 0.08 and 1.33 and 0.58 and 0.33 and 0.25 and 1.58
- Tibia Cartilage Degeneration Score Level 1 [2, 4]: 0.25 and 0.00 and 0.50 and 1.25 and 0.75 and 1.00 and 1.50
- Tibia Cartilage Degeneration Score Level 2 [2, 4]: 1.00 and 1.25 and 1.75 and 1.50 and 0.50
- Tibia Cartilage Degeneration Score Level 3 [2, 4]: 0.50 and 1.50 and 1.00 and 1.25 and 0.75 and 0.00
- Tibia Cartilage Degeneration Score Mean [2, 4]: 0.58 and 1.00 and 0.92 and 0.67 and 1.08 and 0.75 and 1.17 and 0.42 and 1.42
